Results on six compounds are retold here after patent publication US9751896B1, “Asymmetric 7-N isatin dimer Schiff base compounds with antitumor activities and a method of preparing the same” (SHAANXI UNIVERSITY OF SCIENCE AND TECHNOLOGY, priority 2016, dated 2017).

The subject of series [1] is human hepatoma cells (HepG2). In words: Tumor cell proliferation inhibition test (MTT), HepG2. The format is cell-based. Conditions: 48 hours treatment, read-out: Half Inhibitory Concentration IC50 HepG2. As to the method:
(§1) The compounds of the present invention were subjected to tumor cell proliferation inhibition test, and conventional MTT method was used.
(§2) Cell lines: human hepatoma cells (HepG2), human lung cancer cells (A-549), human gastric cancer cells (SGC-7901). The culture medium was DMEM+15% NBS+double antibody.
(§3) Sample solution preparation: after dissolving with DMSO (Merck), PBS (−) was added to obtain 100 μmol/L solution or homogeneous suspension. The solution was diluted with PBS (−) in DMSO to a final concentration of 0.1, 1, 10, 20, 40, 60, 80, 100 μmol/L.
(§4) Antitumor drug cytarabine (Ara-C) was used as control solution, prepared under the same condition.
(§5) Cell culture: adherent growth Tumor cells were cultured in 1640 medium containing 10% inactivated neonatal bovine serum and penicillin, streptomycin (1 million U/L), placed in carbon dioxide incubator at 37° C., 5% CO2, and saturated humidity. Cells were treated serially passaged 2-3 times. The first culture was washed with PBS 2 times, and digested with trypsin. Fresh culture medium was added evenly, cells were adjusted to a appropriate concentration and transferred into a new culture flask. Cell in an exponential phase were chosen for the tests.
(§6) MTT Assay for Cell Viability and IC50 Determination:
(§7) Experimental Principle: Living cells mitochondria in the dehydrogenase can reduce yellow MTT to water-insoluble blue-violet product MT (MTT formazan), deposited in the cells. The amount of production is proportional to the number of living cells. […] DMSO can dissolve blue violet crystals, and the color depth is proportional to the amount contained, so the absorbance measured by the microplate reader can reflect the cell viability.
(§8) Methods: The exponential phase cells were digested and counted and seeded in 96-well plates at a density of 2×10^4/mL at 100 μl per well. After 24 hours of incubation, the cells to be tested were treated with 0.1, 1, 10, 20, 40, 60, 80, 100 μmol/L of the compounds. Each experimental group had 5 wells in each concentration, and the culture medium containing 0.4% DMSO was used as control. After 48 hours, the supernatant was discarded, and 100 μl of MTT ((2-(4,5-dimethyl-2-thiazolyl)-3,5-diphenyl-2H-[…]) (1 mg/mL) was added to each well. After another 4 hours, the supernatant was discarded, and 100 μl of DMSO was added to each well. After mixing, the absorbance was measured at 570 nm using a microplate reader. An IC50 calculation software was used to determine the half inhibitory concentration (IC50).

Series [2] deals with human lung cancer cells (A-549). As to the kind of experiment: Tumor cell proliferation inhibition test (MTT), A-549. The class given is cell-based. The conditions noted are these: A549 cells, 48 hours treatment, read-out: Half Inhibitory Concentration IC50 A549. How it is done: as §1, §2, §3, §4, §5, §6, §7, §8
The subject of series [3] is human gastric cancer cells (SGC-7901). As to the kind of experiment: Tumor cell proliferation inhibition test (MTT), SGC-7901. The class given is cell-based. The conditions noted are these: SGC-7901 cells, 48 hours treatment, read-out: Half Inhibitory Concentration IC50 SGC-7901. As to the method: as §1, §2, §3, §4, §5, §6, §7, §8

SMILES strings stand for the structures.

For `Nc1ccn([C@@H]2O[C@H](CO)[C@@H](O)[C@@H]2O)c(=O)n1` [Ara-C, cytarabine, reference compound], the values for the IC50 in series [1], in series [2] and in series [3] were 18.3 ± 0.28 µM, 14.9 ± 0.64 µM and 18.2 ± 0.39 µM, respectively.
For `Cc1cnc2c(c1)/C(=N/N=C1\C(=O)Nc3ncc(Cl)cc31)C(=O)N2` [Compound 1], the melting point stood at 174.5 °C. The IC50 in series [1] is more than 100 µM. Besides, the IC50 in series [2] came to 55.8 ± 2.67 µM. Further, in series [3], the IC50 was determined as 42.3 ± 1.89 µM.
For the compound `CN1C(=O)/C(=N\N=C2/C(=O)N(Cc3ccccc3)c3ncccc32)c2cccnc21` [Compound 4], the melting point was 214.3 °C. The IC50 in series [1] is more than 100 µM. Further, the IC50 in series [2] amounted to 85.8 ± 2.96 µM. The IC50 in series [3] is more than 100 µM.
In turn, `CCN1C(=O)/C(=N\N=C2/C(=O)N(C)c3ncccc32)c2cccnc21` [Compound 5] yielded a melting point of 195.6 °C. For the same compound, the IC50 in series [1] came to 28.7 ± 0.4 µM. In addition, the IC50 in series [3] is 46.9 ± 0.85 µM.
Regarding `CCN1C(=O)/C(=N\N=C2/C(=O)N(C(C)C)c3ncccc32)c2cccnc21` [Compound 6], the melting point was found to be 191.9 °C. For the same compound, in series [1], the IC50 was more than 100 µM. The IC50 in series [2] is more than 100 µM. Also, the IC50 in series [3] is more than 100 µM.
On to `CC(C)N1C(=O)/C(=N\N=C2/C(=O)N(C)c3ncccc32)c2cccnc21` [Compound 7], for which the melting point is 182.5 °C. For the same compound, in series [1], the IC50 turned out to be 98.6 ± 3.23 µM. Besides, in series [2], the IC50 is more than 100 µM. Besides, the IC50 in series [3] is more than 100 µM.
